Paper PMC8125762, “Molecular Regulation of Betulinic Acid on α3β4 Nicotinic Acetylcholine Receptors” (Molecules, 2021)
Values joined by “and” are separate entries in the source; they are usually repeats but may differ in a detail not shown here. Equal values may be shown once.

Experiments:
[1] = molecular target: T1, bovine α3β4 nicotinic acetylcholine receptors (Bos taurus, UniProt Q07263+Q8SPU6); assay: Two-electrode voltage clamp of ACh-induced inward current (IACh), wild-type α3β4 nAChRs expressed in Xenopus oocytes; type: cell-based; conditions: for IC50: read-out: IC50 (half-maximal inhibitory response concentration)
T1 construct: host or cells: Xenopus laevis oocytes injected with in vitro transcribed mRNA
Protocol: (§1) Bovine cholinergic receptor nicotinic α3 subunit (gene accession number: 282702) and β4 subunit (gene accession number: 282181) were obtained from OriGene (Rockville, State Abbr. USA). All reagents, including ACh, MEC, and BA, were purchased from Sigma-Aldrich (St. Louis, MO, USA). All reagent stocks used in electrophysiological experiments were dissolved in dimethyl sulfoxide (DMSO) with the final concentration of DMSO not exceeding 0.01%. Frogs (Xenopus laevis) used in these experiments were obtained from the Korean Xenopus Resource Center for Research (KXRCR000001) and used according to appropriate standards.
(§2) All experiments were performed according to appropriate standards. After anesthetizing frogs on ice preoperatively, oocytes were extracted. Outer layers of oocytes were removed with OR-2 (Oocyte Ringer 2 solution) (82.5 mM NaCl, 2 mM KCl, 1 mM MgCl2, 5 mM HEPES, pH 7.4) containing collagenase II (2 mg/mL) in a room temperature shaker. Only stage V–VI oocytes were selected and used in this study. These oocytes were incubated in ND96 incubation buffer ([…] NaCl, 2 mM KCl, 1 mM MgCl2, 1.8 mM CaCl2, 5 mM HEPES, 2.5 mM sodium pyruvate, and […] gentamycin, pH 7.4) at 18 °C prior to mRNA injection.
(§3) Bovine α3β4 nAChRs cDNAs were restricted using appropriate restriction sites. Bovine α3β4 nAChRs mRNA was then subjected to in vitro transcription using a T7 polymerase kit (mMESSAGE mMACHINE T7 Transcription Kit; Thermo Fisher Scientific, Waltham, MA, USA) followed by injection into oocytes. A glass needle filled with mineral oil was used to install onto a nanoinjector (Drummond Scientific, Broomall, PA, USA). After incubating for 1–3 days, mRNA-injected oocytes were used for electrophysiology experiments.
Two-electrode voltage clamp (TEVC) experiments were performed using oocytes infused with α3β4 nAChR mRNA and cultured according to appropriate criteria. Each oocyte was penetrated with a microelectrode filled with 3M KCl at a resistance of 0.2 MΩ. All experiments were performed at room temperature using a two-electrode voltage clamp (OC-725C; Warner Instruments, Hamden, CT, USA) with a Digidata 1322A. The holding potential of the oocyte membrane potential was −80 mV. ACh and BA used in the experiment were diluted with ND96 buffer to appropriate concentrations. The perfusion rate was about 2 mL per minute. The induced-inward current was converted to digital data with the pClamp 10 software (Axon Instruments, Union City, CA, USA) for further analysis.
The current-voltage relationship was measured by changing the holding potential using a ramp protocol. Voltages ranging from −100 mV to +60 mV were applied to injected oocytes to measure the voltage ramp trace. The values were converted using Clampfit 9.0 (Molecular Devices, San Jose, CA, USA).
Concentration-response curve data were analyzed using SigmaPlot 10.0 software. Equation data were obtained using OriginPro 9.0 software (Origin, MA, USA) and fitted using the Hill equation y = Vmin + (Vmax − Vmin)*[x]^n/([IC50]^n + [x]^n), where Vmax and Vmin were the maximum and minimum current, respectively, x was the concentration of ACh or BA, n was the coefficient of interaction, and IC50 was the concentration of BA that produced half the maximum inhibitory effect. p-values < 0.05 were considered statistically significant.

[2] = molecular target: T2, α3 (L257A) + Wild β4 nicotinic acetylcholine receptor (Bos taurus, UniProt Q07263+Q8SPU6, L278A); assay: Two-electrode voltage clamp, single-mutant α3 (L257A) + wild β4 nAChR in Xenopus oocytes; type: cell-based, bovine; conditions: 100 μM ACh, holding potential −80 mV
T2 construct: host or cells: Xenopus laevis oocytes injected with mRNA; mutant made by site-directed mutagenesis
Protocol: as §1, §2, §3
(§4) Using α3 and β4 subunit cDNAs, point mutation was performed by PCR with Pfu DNA polymerase (Quikchange II Site-Directed Mutagenesis Kit). After designing a chimeric primer for mutation, optimal PCR conditions were determined. DpnI was added to remove methylated cDNA. […]
(§5) Concentration-response curve data were analyzed using SigmaPlot 10.0 software. […]

[3] = molecular target: T3, Wild α3 + β4 (I263A) nicotinic acetylcholine receptor (Bos taurus, UniProt Q07263+Q8SPU6, I284A); assay: Two-electrode voltage clamp, single-mutant wild α3 + β4 (I263A) nAChR in Xenopus oocytes; type: cell-based, bovine; conditions: 100 μM ACh, holding potential −80 mV
T3 construct: host or cells: Xenopus laevis oocytes injected with mRNA; mutant made by site-directed mutagenesis
Protocol: as §1, §2, §3, §4, §5

[4] = molecular target: T4, α3 (L257A) + β4 (I263A) nicotinic acetylcholine receptor (Bos taurus, UniProt Q07263+Q8SPU6, I284A/L278A); assay: Two-electrode voltage clamp, double-mutant α3 (L257A) + β4 (I263A) nAChR in Xenopus oocytes; type: cell-based, bovine; conditions: 100 μM ACh, holding potential −80 mV
T4 construct: host or cells: Xenopus laevis oocytes injected with mRNA; mutants made by site-directed mutagenesis
Protocol: as §1, §2, §3, §4, §5

[5] = wild-type, co-applied with 100 μM ACh, holding potential −80 mV

T4 sequence (Q07263 22-495 L278A): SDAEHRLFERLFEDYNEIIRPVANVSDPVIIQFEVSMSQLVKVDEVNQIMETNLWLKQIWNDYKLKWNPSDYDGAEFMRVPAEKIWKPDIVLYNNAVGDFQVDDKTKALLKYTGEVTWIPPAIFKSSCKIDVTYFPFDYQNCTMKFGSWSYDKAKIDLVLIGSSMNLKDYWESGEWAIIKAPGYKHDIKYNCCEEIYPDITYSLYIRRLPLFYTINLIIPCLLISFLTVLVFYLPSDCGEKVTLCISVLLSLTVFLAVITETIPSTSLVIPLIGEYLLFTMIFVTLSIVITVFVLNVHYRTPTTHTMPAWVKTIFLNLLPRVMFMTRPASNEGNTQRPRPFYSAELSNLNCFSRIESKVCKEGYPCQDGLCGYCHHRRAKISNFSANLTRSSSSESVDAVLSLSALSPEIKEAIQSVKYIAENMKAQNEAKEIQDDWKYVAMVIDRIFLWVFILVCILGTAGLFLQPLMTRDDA
T4 sequence (Q8SPU6 20-496 I284A): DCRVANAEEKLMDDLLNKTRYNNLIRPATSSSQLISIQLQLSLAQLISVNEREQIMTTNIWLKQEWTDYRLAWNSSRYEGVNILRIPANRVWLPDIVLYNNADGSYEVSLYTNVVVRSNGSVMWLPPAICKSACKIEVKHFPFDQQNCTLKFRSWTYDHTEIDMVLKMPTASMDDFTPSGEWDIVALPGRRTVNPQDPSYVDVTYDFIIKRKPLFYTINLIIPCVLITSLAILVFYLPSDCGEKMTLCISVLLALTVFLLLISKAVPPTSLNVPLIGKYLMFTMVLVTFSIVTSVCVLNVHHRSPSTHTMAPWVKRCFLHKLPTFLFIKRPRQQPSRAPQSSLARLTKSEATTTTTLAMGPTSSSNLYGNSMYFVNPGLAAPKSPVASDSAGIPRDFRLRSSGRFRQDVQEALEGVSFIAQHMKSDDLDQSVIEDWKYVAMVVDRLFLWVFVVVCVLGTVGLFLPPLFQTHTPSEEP
T2 sequence (Q07263 22-495 L278A): as the sequence (Q07263 22-495 L278A) above
T2 sequence (Q8SPU6 20-496, stated change not applied): as the sequence (Q8SPU6 20-496 I284A) above, with A265I counted along it
T3 sequence (Q07263 22-495, stated change not applied): as the sequence (Q07263 22-495 L278A) above, with A257L counted along it
T3 sequence (Q8SPU6 20-496 I284A): as the sequence (Q8SPU6 20-496 I284A) above
T1 sequence (Q07263 22-495): as the sequence (Q07263 22-495 L278A) above, with A257L counted along it
T1 sequence (Q8SPU6 20-496): as the sequence (Q8SPU6 20-496 I284A) above, with A265I counted along it

| SMILES | inhibition at 10 µM ([1]; MEC 10 μM added at the same time as 100 μM ACh, holding potential −80 mV, read-out: inhibition of IACh (acetylcholine-induced inward peak current)) | Hill coefficient (nH) [1, 5] | IC50 [1, 5] | EC50 ([1]; in the absence of BA, holding potential −80 mV) | Emax ([1]; read-out: maximum efficacy of ACh-induced inward current (Emax)) | decrease of efficacy of acetylcholine-induced inward current ([1]; 10 μM BA compared to 0 μM BA) | reversible potential (current-voltage relationship) ([1]; ACh 100 μM and BA co-administered, voltage ramp −100 to +60 mV) | reversibility of inhibition ([1]; ACh added again after BA co-administration) | inhibition percentage of nAChRs ([1]; BA 100 μM co-applied with 100 μM ACh, holding potential −80 mV) | manner of inhibition versus ACh ([1]; different ACh concentrations with fixed BA 3 μM or 10 μM) | Imax [1, 5] | IC50 [2] | Imax [2] | nH (Hill coefficient) [2] | IC50 [3] | Imax [3] | nH (Hill coefficient) [3] | IC50 [4] | Imax [4] | nH (Hill coefficient) [4] |
| --- | --- | --- | --- | --- | --- | --- | --- | --- | --- | --- | --- | --- | --- | --- | --- | --- | --- | --- | --- | --- |
| CNC1(C)C2CCC(C2)C1(C)C (stereo not shown) [MEC, mecamylamine, reference compound] | ~100% | 1.5 ± 0.1 | 1.5 µM |  |  |  |  |  |  |  |  |  |  |  |  |  |  |  |  |  |
| CC(=O)OCC[N+](C)(C)C [ACh, acetylcholine] |  |  |  | 9.4 ± 1.25 µM | 101 ± 1.47% |  |  |  |  |  |  |  |  |  |  |  |  |  |  |  |
| C=C(C)[C@@H]1CC[C@]2(C(=O)O)CC[C@]3(C)[C@H](CC[C@@H]4[C@@]5(C)CC[C@H](O)C(C)(C)[C@@H]5CC[C@]43C)[C@@H]12 [BA, 3β, hydroxy-lup-20 (29) -en-28-oic acid] |  | 0.9 ± 0.1 | 12.9 µM and 12.8 µM |  |  | about 60% | about −10 mV | reversible | 89.2 ± 8.2% | non-competitive | 101.59 ± 5.98% and 101.5 ± 5.9% | 18.6 µM | 48.9 ± 2.7% | 1.6 ± 0.1 | ~13.4 µM and 13.4 µM | 33.1 ± 3.3% | 2.7 ± 1.0 | ~26.2 µM | 7.4% | 2 |
